{"source": "PubChem BioAssay AID330", "about": "(DTP/NCI, 2004)", "tested_on": "P388 leukemia ip, CD2F1 mice, survival T/C", "assay": "NCI In Vivo Anticancer Drug Screen. Data for tumor model P388 Leukemia (intraperitoneal) in CD2F1 (CDF1) mice", "settings": "endpoint: median survival time, higher = longer survival", "in_short": "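Mice carrying the transplanted tumor received test compound or vehicle. Survival was recorded in each group, and the value is the treated-group measurement divided by that of the vehicle-treated control group.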", "key": {"[1]": {"settings": "dose: 50.0 mg/kg/injection, schedule: Q01DX009 (ip), vehicle: Klucel (hydroxypropylcellulose) (HPC)"}, "[2]": {"settings": "dose: 100.0 mg/kg/injection, schedule: Q01DX009 (ip), vehicle: Klucel (hydroxypropylcellulose) (HPC)"}, "[3]": {"settings": "dose: 200.0 mg/kg/injection, schedule: Q01DX009 (ip), vehicle: Klucel (hydroxypropylcellulose) (HPC)"}, "[4]": {"settings": "dose: 50.0 mg/kg/injection, schedule: Q01DX005 (ip), vehicle: saline with Tween-80"}, "[5]": {"settings": "dose: 100.0 mg/kg/injection, schedule: Q01DX005 (ip), vehicle: saline with Tween-80"}, "[6]": {"settings": "dose: 200.0 mg/kg/injection, schedule: Q01DX005 (ip), vehicle: saline with Tween-80"}}, "note": "Where “and” joins values, the source holds several entries; their conditions need not be identical. Identical values can stand only once. Toxic doses and inconclusive results are not listed.", "data": [{"smiles": "CCCCCCCCCC(=O)CCCCC", "values": [{"measurement": "T/C", "setting": "dose: 100.0 mg/kg/injection, schedule: Q01DX009 (ip), vehicle: other", "value": "115 % of control"}, {"measurement": "T/C", "setting": "dose: 200.0 mg/kg/injection, schedule: Q01DX009 (ip), vehicle: other", "value": "115 % of control"}, {"measurement": "T/C", "setting": "dose: 400.0 mg/kg/injection, schedule: Q01DX009 (ip), vehicle: other", "value": "90 % of control"}]}, {"smiles": "CCc1nc(N)nc(N)c1-c1ccc(N=[N+]=[N-])c(Cl)c1", "values": [{"measurement": "T/C", "setting": "dose: 100.0 mg/kg/injection, schedule: Q04DX002 (ip), vehicle: saline with Tween-80", "value": "160 % of control"}, {"measurement": "T/C", "setting": "dose: 200.0 mg/kg/injection, schedule: Q04DX002 (ip), vehicle: saline with Tween-80", "value": "116 % of control"}, {"measurement": "T/C", "setting": "dose: 400.0 mg/kg/injection, schedule: Q04DX002 (ip), vehicle: saline with Tween-80", "value": "90 % of control"}]}, {"smiles": "N#Cc1ccc(N)cc1C#N", "values": [{"measurement": "T/C", "setting": "[1]", "value": "94 % of control"}, {"measurement": "T/C", "setting": "[2]", "value": "94 % of control"}, {"measurement": "T/C", "setting": "[3]", "value": "96 % of control"}]}, {"smiles": "Cc1cc(C2=CSC3=NCCN23)ccc1Cl", "values": [{"measurement": "T/C", "setting": "[4]", "value": "107 % of control"}, {"measurement": "T/C", "setting": "[5]", "value": "105 % of control"}]}, {"smiles": "CC1(C)c2ccccc2-c2nc3ccccc3cc2C1N1CCOCC1", "note": "(stereo unspecified)", "values": [{"measurement": "T/C", "setting": "[4]", "value": "92 % of control"}, {"measurement": "T/C", "setting": "[5]", "value": "104 % of control"}, {"measurement": "T/C", "setting": "[6]", "value": "101 % of control"}]}, {"smiles": "NC(CCCCNC=O)C(=O)O", "note": "(stereo unspecified)", "values": [{"measurement": "T/C", "setting": "dose: 50.0 mg/kg/injection, schedule: Q01DX005 (ip), vehicle: saline", "value": "104 % of control"}, {"measurement": "T/C", "setting": "dose: 100.0 mg/kg/injection, schedule: Q01DX005 (ip), vehicle: saline", "value": "98 % of control"}, {"measurement": "T/C", "setting": "dose: 200.0 mg/kg/injection, schedule: Q01DX005 (ip), vehicle: saline", "value": "96 % of control"}]}, {"smiles": "C[n+]1c2ccccc2c(N=[N+]=[N-])c2ccccc21", "values": [{"measurement": "T/C", "setting": "dose: 6.25 mg/kg/injection, schedule: Q01DX009 (ip), vehicle: saline", "value": "100 % of control"}, {"measurement": "T/C", "setting": "dose: 12.5 mg/kg/injection, schedule: Q01DX009 (ip), vehicle: saline", "value": "98 % of control"}, {"measurement": "T/C", "setting": "dose: 25.0 mg/kg/injection, schedule: Q01DX009 (ip), vehicle: saline", "value": "105 % of control"}, {"measurement": "T/C", "setting": "dose: 50.0 mg/kg/injection, schedule: Q01DX009 (ip), vehicle: saline", "value": "109 % of control"}]}, {"smiles": "COC1=CC2CCN3C=C(C#N)C(C#N)CC3C2C=C1OC", "note": "(stereo unspecified)", "values": [{"measurement": "T/C", "setting": "[4]", "value": "95 % of control"}, {"measurement": "T/C", "setting": "[5]", "value": "111 % of control"}, {"measurement": "T/C", "setting": "[6]", "value": "111 % of control"}]}, {"smiles": "CN1C(c2ccccc2)C2CSCC(C2O)C1c1ccccc1", "note": "(stereo unspecified)", "values": [{"measurement": "T/C", "setting": "dose: 100.0 mg/kg/injection, schedule: Q04DX003 (ip), vehicle: suspension in saline", "value": "106 % of control"}, {"measurement": "T/C", "setting": "dose: 200.0 mg/kg/injection, schedule: Q04DX003 (ip), vehicle: suspension in saline", "value": "100 % of control"}, {"measurement": "T/C", "setting": "dose: 400.0 mg/kg/injection, schedule: Q04DX003 (ip), vehicle: suspension in saline", "value": "98 % of control"}]}, {"smiles": "OC1(C(F)(F)F)NN2C=CC=CC2=NO1", "note": "(stereo unspecified)", "values": [{"measurement": "T/C", "setting": "dose: 60.0 mg/kg/injection, schedule: Q01DX005 (ip), vehicle: saline with Tween-80", "value": "95 % of control"}, {"measurement": "T/C", "setting": "dose: 120.0 mg/kg/injection, schedule: Q01DX005 (ip), vehicle: saline with Tween-80", "value": "96 % of control"}, {"measurement": "T/C", "setting": "dose: 240.0 mg/kg/injection, schedule: Q01DX005 (ip), vehicle: saline with Tween-80", "value": "100 % of control"}]}, {"smiles": "O=S(=O)(C(Br)S(=O)(=O)C(F)(F)C(F)(F)C(F)(F)C(F)(F)F)C(F)(F)C(F)(F)C(F)(F)C(F)(F)F", "values": [{"measurement": "T/C", "setting": "dose: 25.0 mg/kg/injection, schedule: Q01DX001 (ip), vehicle: saline", "value": "95 % of control"}, {"measurement": "T/C", "setting": "dose: 50.0 mg/kg/injection, schedule: Q01DX001 (ip), vehicle: saline", "value": "95 % of control"}, {"measurement": "T/C", "setting": "dose: 100.0 mg/kg/injection, schedule: Q01DX001 (ip), vehicle: saline", "value": "100 % of control and 101 % of control"}]}, {"smiles": "[Co].[NH-]CCC[NH-].[NH-]CCC[NH-].[NH-]CCC[NH-]", "values": [{"measurement": "T/C", "setting": "dose: 25.0 mg/kg/injection, schedule: Q04DX002 (ip), vehicle: saline", "value": "99 % of control"}, {"measurement": "T/C", "setting": "dose: 50.0 mg/kg/injection, schedule: Q04DX002 (ip), vehicle: saline", "value": "98 % of control"}, {"measurement": "T/C", "setting": "dose: 100.0 mg/kg/injection, schedule: Q04DX002 (ip), vehicle: saline", "value": "100 % of control"}]}, {"smiles": "O=c1ccnc(Sc2ncccc2[N+](=O)[O-])[nH]1", "values": [{"measurement": "T/C", "setting": "dose: 100.0 mg/kg/injection, schedule: Q04DX003 (ip), vehicle: saline with Tween-80", "value": "100 % of control"}, {"measurement": "T/C", "setting": "dose: 200.0 mg/kg/injection, schedule: Q04DX003 (ip), vehicle: saline with Tween-80", "value": "100 % of control"}, {"measurement": "T/C", "setting": "dose: 400.0 mg/kg/injection, schedule: Q04DX003 (ip), vehicle: saline with Tween-80", "value": "100 % of control"}]}, {"smiles": "CCCCN(CCCC)C(Cl)=Nc1ccccc1", "values": [{"measurement": "T/C", "setting": "dose: 25.0 mg/kg/injection, schedule: Q01DX009 (ip), vehicle: Klucel (hydroxypropylcellulose) (HPC)", "value": "119 % of control"}, {"measurement": "T/C", "setting": "[1]", "value": "120 % of control"}, {"measurement": "T/C", "setting": "[2]", "value": "112 % of control"}]}, {"smiles": "COc1ccccc1-c1cn(O)c(=N)c(C#N)n1", "values": [{"measurement": "T/C", "setting": "dose: 6.25 mg/kg/injection, schedule: Q01DX009 (ip), vehicle: saline with Tween-80", "value": "89 % of control"}, {"measurement": "T/C", "setting": "dose: 12.5 mg/kg/injection, schedule: Q01DX009 (ip), vehicle: saline with Tween-80", "value": "94 % of control"}, {"measurement": "T/C", "setting": "dose: 25.0 mg/kg/injection, schedule: Q01DX009 (ip), vehicle: saline with Tween-80", "value": "94 % of control"}]}, {"smiles": "O=C1NCCN1C(=O)Nc1ccc(Cl)c(Cl)c1", "values": [{"measurement": "T/C", "setting": "[1]", "value": "116 % of control"}, {"measurement": "T/C", "setting": "[2]", "value": "108 % of control"}, {"measurement": "T/C", "setting": "[3]", "value": "110 % of control"}]}, {"smiles": "CCN(CC)C(=O)C(F)C(F)(F)C(F)(F)COCc1ccccc1", "note": "(stereo unspecified)", "values": [{"measurement": "T/C", "setting": "dose: 50.0 mg/kg/injection, schedule: Q01DX009 (ip), vehicle: saline with Tween-80", "value": "99 % of control"}, {"measurement": "T/C", "setting": "dose: 100.0 mg/kg/injection, schedule: Q01DX009 (ip), vehicle: saline with Tween-80", "value": "100 % of control"}, {"measurement": "T/C", "setting": "dose: 200.0 mg/kg/injection, schedule: Q01DX009 (ip), vehicle: saline with Tween-80", "value": "100 % of control"}]}]}
